Assay results published in patent US9969694B2, “N-(arylalkyl)-N′-pyrazolyl-urea, thiourea, guanidine and cyanoguanidine compounds as TrkA kinase inhibitors” (Array BioPharma Inc., priority 2012, dated 2018).
Values belong to the compound of their own block, whether it stands above or below them.

What was measured:
Test in all cases: Off-Target Kinase Profiling
Type in all cases: biochemical
Conditions in all cases: 10 μM; ATP near Km
PDGFRalpha = biological target: T1, PDGFRalpha (Homo sapiens, UniProt P16234)
T1 construct: purchased Millipore, Inc. (KinaseProfiler service)
Outline: (§1)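 Duplicate determinations at a single 10 μM dose make up each value, expressed as POC. Assays followed the provider's per-kinase conditions, with ATP near Km.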

AKT2 = biological target: T2, AKT2 (Homo sapiens, UniProt P31751)
T2 construct: purchased Millipore (KinaseProfiler service)
Outline: as §1

PhKgamma2 = biological target: T3, PhKgamma2 (Homo sapiens, UniProt P15735)
T3 construct: purchased Millipore, Inc. (KinaseProfiler service)
Outline: as §1

CK1gamma3 = biological target: T4, CK1gamma3 (Homo sapiens, UniProt Q9Y6M4)
T4 construct: purchased Millipore, Inc. (KinaseProfiler service)
Outline: as §1

PDK1 = biological target: T5, PDK1 (Homo sapiens, UniProt O15530)
T5 construct: purchased Millipore, Inc. (KinaseProfiler service)
Outline: as §1

IGF-1R = biological target: T6, IGF-1R (Homo sapiens, UniProt P08069)
T6 construct: purchased Millipore, Inc. (KinaseProfiler service)
Outline: as §1

TAO1 = biological target: T7, TAO1 (Homo sapiens, UniProt Q7L7X3)
T7 construct: purchased Millipore, Inc. (KinaseProfiler service)
Outline: as §1

EphB3 = biological target: T8, EphB3 (Homo sapiens, UniProt P54753)
T8 construct: purchased Millipore, Inc. (KinaseProfiler service)
Outline: as §1

JNK2alpha2 = biological target: T9, JNK2alpha2 (Homo sapiens, UniProt P45984)
T9 construct: purchased Millipore, Inc. (KinaseProfiler service)
Outline: as §1

MINK = biological target: T10, MINK (Homo sapiens, UniProt Q8N4C8)
T10 construct: purchased Millipore, Inc. (KinaseProfiler service)
Outline: as §1

HIPK1 = biological target: T11, HIPK1 (Homo sapiens, UniProt Q86Z02)
T11 construct: purchased Millipore, Inc. (KinaseProfiler service)
Outline: as §1

IRAK4 = biological target: T12, IRAK4 (Homo sapiens, UniProt Q9NWZ3)
T12 construct: purchased Millipore, Inc. (KinaseProfiler service)
Outline: as §1

CDK1/cyclinB = biological target: T13, CDK1/cyclinB (Homo sapiens, UniProt P06493)
T13 construct: purchased Millipore (KinaseProfiler service)
Outline: as §1

CDK7/cyclinH/MAT1 = biological target: T14, CDK7/cyclinH/MAT1 (Homo sapiens, UniProt P50613)
T14 construct: purchased Millipore, Inc. (KinaseProfiler service)
Outline: as §1

Pim-3 = biological target: T15, Pim-3 (Homo sapiens, UniProt Q86V86)
T15 construct: purchased Millipore, Inc. (KinaseProfiler service)
Outline: as §1

EphA8 = biological target: T16, EphA8 (Homo sapiens, UniProt P29322)
T16 construct: purchased Millipore, Inc. (KinaseProfiler service)
Outline: as §1

CDK5/p35 = biological target: T17, CDK5/p35 (Homo sapiens, UniProt Q00535)
T17 construct: purchased Millipore, Inc. (KinaseProfiler service)
Outline: as §1

CDK2/cyclinE = biological target: T18, CDK2/cyclinE (Homo sapiens, UniProt P24941)
T18 construct: purchased Millipore, Inc. (KinaseProfiler service)
Outline: as §1

GSK3beta = biological target: T19, GSK3beta (Homo sapiens, UniProt P49841)
T19 construct: purchased Millipore, Inc. (KinaseProfiler service)
Outline: as §1

Flt3 = biological target: T20, Flt3 (Homo sapiens, UniProt P36888)
T20 construct: purchased Millipore, Inc. (KinaseProfiler service)
Outline: as §1

EphB4 = biological target: T21, EphB4 (Homo sapiens, UniProt P54760)
T21 construct: purchased Millipore, Inc. (KinaseProfiler service)
Outline: as §1

FAK = biological target: T22, FAK (Homo sapiens, UniProt Q05397)
T22 construct: purchased Millipore, Inc. (KinaseProfiler service)
Outline: as §1

ITK = biological target: T23, ITK (Homo sapiens, UniProt Q08881)
T23 construct: purchased Millipore, Inc. (KinaseProfiler service)
Outline: as §1

NLK = biological target: T24, NLK (Homo sapiens, UniProt Q9UBE8)
T24 construct: purchased Millipore, Inc. (KinaseProfiler service)
Outline: as §1

Fer = biological target: T25, Fer (Homo sapiens, UniProt P16591)
T25 construct: purchased Millipore, Inc. (KinaseProfiler service)
Outline: as §1

DAPK2 = biological target: T26, DAPK2 (Homo sapiens, UniProt Q9UIK4)
T26 construct: purchased Millipore, Inc. (KinaseProfiler service)
Outline: as §1

KIT = biological target: T27, KIT (Homo sapiens, UniProt P10721)
T27 construct: purchased Millipore, Inc. (KinaseProfiler service)
Outline: as §1

PKCiota = biological target: T28, PKCiota (Homo sapiens, UniProt P41743)
T28 construct: purchased Millipore, Inc. (KinaseProfiler service)
Outline: as §1

CHK1 = biological target: T29, CHK1 (Homo sapiens, UniProt O14757)
T29 construct: purchased Millipore, Inc. (KinaseProfiler service)
Outline: as §1

GSK3alpha = biological target: T30, GSK3alpha (Homo sapiens, UniProt P49840)
T30 construct: purchased Millipore, Inc. (KinaseProfiler service)
Outline: as §1

IRR = biological target: T31, IRR (Homo sapiens, UniProt P14616)
T31 construct: purchased Millipore, Inc. (KinaseProfiler service)
Outline: as §1

Txk = biological target: T32, Txk (Homo sapiens, UniProt P42681)
T32 construct: purchased Millipore, Inc. (KinaseProfiler service)
Outline: as §1

EphA5 = biological target: T33, EphA5 (Homo sapiens, UniProt P54756)
T33 construct: purchased Millipore, Inc. (KinaseProfiler service)
Outline: as §1

CLK2 = biological target: T34, CLK2 (Homo sapiens, UniProt P49760)
T34 construct: purchased Millipore, Inc. (KinaseProfiler service)
Outline: as §1

ErbB4 = biological target: T35, ErbB4 (Homo sapiens, UniProt Q15303)
T35 construct: purchased Millipore, Inc. (KinaseProfiler service)
Outline: as §1

MAPKAP-K2 = biological target: T36, MAPKAP-K2 (Homo sapiens, UniProt P49137)
T36 construct: purchased Millipore, Inc. (KinaseProfiler service)
Outline: as §1

MKNK2 = biological target: T37, MKNK2 (Homo sapiens, UniProt Q9HBH9)
T37 construct: purchased Millipore, Inc. (KinaseProfiler service)
Outline: as §1

SGK1 = biological target: T38, SGK1 (Homo sapiens, UniProt O00141)
T38 construct: purchased Millipore, Inc. (KinaseProfiler service)
Outline: as §1

ERK2 = biological target: T39, ERK2 (Homo sapiens, UniProt P28482)
T39 construct: purchased Millipore, Inc. (KinaseProfiler service)
Outline: as §1

AMPK(A1/B1/G1) = biological target: T40, AMPK(A1/B1/G1) (Homo sapiens, UniProt Q13131)
T40 construct: purchased Millipore (KinaseProfiler service)
Outline: as §1

MSK1 = biological target: T41, MSK1 (Homo sapiens, UniProt O75582)
T41 construct: purchased Millipore, Inc. (KinaseProfiler service)
Outline: as §1

T3 sequence (P15735 whole entry): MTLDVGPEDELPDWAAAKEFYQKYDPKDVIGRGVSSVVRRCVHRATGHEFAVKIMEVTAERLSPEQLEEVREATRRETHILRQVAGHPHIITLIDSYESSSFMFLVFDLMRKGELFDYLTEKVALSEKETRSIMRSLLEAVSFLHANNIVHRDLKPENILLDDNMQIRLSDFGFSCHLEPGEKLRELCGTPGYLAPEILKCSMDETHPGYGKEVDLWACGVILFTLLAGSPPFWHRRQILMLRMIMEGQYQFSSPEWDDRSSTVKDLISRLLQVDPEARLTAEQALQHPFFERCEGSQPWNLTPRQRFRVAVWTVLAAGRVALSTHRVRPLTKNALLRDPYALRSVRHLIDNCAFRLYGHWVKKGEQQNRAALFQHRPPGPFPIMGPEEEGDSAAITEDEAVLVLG
T10 sequence (Q8N4C8 whole entry): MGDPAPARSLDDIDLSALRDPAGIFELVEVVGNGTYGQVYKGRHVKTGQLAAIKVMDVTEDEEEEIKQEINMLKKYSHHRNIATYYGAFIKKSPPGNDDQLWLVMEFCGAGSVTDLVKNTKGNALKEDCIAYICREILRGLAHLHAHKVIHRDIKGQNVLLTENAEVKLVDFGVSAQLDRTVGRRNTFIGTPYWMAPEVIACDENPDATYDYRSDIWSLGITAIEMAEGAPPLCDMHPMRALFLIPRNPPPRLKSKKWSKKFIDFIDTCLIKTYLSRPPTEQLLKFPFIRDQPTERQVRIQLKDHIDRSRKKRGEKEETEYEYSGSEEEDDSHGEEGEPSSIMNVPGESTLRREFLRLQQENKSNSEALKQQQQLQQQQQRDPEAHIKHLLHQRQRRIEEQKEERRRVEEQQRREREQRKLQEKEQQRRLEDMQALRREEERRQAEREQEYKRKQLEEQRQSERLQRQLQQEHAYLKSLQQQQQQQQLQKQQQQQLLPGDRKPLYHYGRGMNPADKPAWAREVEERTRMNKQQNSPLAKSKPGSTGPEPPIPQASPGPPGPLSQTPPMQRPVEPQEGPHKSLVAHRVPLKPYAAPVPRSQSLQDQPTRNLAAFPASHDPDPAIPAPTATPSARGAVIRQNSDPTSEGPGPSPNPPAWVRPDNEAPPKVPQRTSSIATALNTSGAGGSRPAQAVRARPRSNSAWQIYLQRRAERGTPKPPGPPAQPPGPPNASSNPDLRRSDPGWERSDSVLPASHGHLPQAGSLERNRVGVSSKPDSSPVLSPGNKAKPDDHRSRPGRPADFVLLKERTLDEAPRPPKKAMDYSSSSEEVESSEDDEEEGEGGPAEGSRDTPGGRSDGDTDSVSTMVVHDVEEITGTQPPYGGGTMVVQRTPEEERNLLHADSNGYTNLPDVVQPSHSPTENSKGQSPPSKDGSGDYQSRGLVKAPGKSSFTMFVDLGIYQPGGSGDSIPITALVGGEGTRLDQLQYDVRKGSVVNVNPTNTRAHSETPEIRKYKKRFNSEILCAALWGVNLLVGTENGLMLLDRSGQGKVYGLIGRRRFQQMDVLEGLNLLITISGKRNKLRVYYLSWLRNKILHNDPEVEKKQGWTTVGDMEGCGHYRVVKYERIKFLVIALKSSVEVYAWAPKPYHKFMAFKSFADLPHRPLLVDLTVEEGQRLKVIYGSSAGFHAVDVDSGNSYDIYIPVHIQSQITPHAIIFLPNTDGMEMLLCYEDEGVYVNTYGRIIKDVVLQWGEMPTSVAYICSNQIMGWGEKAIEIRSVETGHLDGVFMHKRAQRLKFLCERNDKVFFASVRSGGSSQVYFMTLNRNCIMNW
T24 sequence (Q9UBE8 whole entry): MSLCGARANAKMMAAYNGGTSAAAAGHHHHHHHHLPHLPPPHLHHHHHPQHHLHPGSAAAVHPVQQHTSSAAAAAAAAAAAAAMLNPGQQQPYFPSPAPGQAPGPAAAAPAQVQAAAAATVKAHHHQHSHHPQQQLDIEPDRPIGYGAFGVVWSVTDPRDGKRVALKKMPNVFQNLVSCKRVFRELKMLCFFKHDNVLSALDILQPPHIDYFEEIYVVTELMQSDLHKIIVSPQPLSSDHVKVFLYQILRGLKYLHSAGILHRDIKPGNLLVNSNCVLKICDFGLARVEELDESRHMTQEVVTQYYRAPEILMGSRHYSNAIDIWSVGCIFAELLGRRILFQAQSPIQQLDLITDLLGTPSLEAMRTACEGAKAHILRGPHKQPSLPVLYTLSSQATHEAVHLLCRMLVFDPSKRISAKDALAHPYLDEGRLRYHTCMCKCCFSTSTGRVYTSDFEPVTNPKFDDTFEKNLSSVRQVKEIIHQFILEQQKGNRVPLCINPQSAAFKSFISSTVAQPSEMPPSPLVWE
T25 sequence (P16591 whole entry): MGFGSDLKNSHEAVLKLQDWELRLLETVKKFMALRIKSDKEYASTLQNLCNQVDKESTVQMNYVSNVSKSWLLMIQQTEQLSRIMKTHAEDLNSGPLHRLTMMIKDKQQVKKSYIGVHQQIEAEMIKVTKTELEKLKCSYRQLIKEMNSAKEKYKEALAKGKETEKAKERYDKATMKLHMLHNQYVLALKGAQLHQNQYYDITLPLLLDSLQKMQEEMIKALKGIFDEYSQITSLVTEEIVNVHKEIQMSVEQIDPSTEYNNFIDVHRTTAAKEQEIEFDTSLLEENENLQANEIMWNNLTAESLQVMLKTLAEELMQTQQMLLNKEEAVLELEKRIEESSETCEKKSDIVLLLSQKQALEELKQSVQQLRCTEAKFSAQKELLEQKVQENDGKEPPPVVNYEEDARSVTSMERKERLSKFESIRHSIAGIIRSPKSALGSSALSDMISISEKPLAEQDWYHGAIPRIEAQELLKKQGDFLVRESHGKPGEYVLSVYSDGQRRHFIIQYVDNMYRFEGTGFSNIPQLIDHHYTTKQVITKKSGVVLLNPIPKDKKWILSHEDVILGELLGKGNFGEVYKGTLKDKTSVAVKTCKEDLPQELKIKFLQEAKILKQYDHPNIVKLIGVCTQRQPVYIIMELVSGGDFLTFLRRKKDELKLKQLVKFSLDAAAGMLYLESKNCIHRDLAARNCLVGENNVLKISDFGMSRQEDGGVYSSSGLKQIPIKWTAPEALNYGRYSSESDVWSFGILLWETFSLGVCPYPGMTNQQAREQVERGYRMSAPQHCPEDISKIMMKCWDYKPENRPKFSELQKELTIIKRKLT
T8 sequence (P54753 34-998): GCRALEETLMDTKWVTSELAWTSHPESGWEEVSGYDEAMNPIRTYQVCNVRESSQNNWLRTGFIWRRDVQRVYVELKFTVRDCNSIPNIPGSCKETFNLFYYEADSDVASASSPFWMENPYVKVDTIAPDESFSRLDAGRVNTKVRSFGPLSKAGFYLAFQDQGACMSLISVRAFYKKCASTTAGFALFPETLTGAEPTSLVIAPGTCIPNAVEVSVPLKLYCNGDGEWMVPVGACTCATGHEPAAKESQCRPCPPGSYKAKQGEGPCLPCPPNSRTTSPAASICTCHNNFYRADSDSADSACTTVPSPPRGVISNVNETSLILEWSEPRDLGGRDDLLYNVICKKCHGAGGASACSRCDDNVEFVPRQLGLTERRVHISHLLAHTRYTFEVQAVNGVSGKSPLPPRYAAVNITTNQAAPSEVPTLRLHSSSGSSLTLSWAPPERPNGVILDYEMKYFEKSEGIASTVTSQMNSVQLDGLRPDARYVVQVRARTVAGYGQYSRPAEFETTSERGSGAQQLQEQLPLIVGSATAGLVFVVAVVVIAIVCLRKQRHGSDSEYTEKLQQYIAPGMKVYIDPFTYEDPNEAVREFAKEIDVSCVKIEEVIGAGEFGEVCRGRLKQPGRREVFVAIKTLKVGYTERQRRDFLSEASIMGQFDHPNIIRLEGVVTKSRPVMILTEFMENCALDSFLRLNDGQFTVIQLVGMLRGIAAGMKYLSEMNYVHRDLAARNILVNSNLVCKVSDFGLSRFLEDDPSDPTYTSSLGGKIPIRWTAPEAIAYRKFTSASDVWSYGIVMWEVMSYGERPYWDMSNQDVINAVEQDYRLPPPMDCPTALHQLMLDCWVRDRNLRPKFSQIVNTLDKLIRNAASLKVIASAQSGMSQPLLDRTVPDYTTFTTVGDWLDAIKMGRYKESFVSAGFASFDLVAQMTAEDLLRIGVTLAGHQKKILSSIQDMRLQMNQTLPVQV
T17 sequence (Q00535 whole entry): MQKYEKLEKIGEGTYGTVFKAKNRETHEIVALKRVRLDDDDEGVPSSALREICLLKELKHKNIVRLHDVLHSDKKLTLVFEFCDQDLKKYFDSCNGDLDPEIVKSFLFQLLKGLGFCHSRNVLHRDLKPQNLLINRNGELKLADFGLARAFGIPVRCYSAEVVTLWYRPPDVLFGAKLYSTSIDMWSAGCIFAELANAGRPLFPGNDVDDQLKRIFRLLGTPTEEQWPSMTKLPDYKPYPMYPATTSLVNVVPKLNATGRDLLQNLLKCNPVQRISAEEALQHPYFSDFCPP
T17 sequence (Q15078 whole entry partner): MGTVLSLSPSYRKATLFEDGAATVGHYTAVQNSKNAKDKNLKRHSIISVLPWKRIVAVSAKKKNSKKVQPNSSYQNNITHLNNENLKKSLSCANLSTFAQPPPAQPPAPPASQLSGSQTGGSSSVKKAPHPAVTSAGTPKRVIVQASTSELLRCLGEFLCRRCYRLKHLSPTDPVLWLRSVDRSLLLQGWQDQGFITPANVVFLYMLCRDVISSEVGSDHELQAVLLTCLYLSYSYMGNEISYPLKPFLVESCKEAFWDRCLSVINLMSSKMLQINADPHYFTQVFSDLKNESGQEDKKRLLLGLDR
T26 sequence (Q9UIK4 whole entry): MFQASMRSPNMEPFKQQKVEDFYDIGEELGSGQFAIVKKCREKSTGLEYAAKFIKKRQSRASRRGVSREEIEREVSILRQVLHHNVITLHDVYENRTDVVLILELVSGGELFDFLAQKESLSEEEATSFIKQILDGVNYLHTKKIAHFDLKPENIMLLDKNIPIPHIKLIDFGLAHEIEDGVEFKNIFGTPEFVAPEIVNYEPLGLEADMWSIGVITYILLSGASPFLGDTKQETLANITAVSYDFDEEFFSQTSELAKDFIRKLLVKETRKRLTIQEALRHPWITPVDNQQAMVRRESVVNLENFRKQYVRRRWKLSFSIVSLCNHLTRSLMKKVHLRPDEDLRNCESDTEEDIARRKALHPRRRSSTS

Avg POC PDGFRalpha (PDGFRalpha): 102 POC
Avg POC AKT2 (AKT2): 142 POC
Avg POC PhKgamma2 (PhKgamma2): 118 POC
Avg POC CK1gamma3 (CK1gamma3): 39 POC
Avg POC PDK1 (PDK1): 120.5 POC
Avg POC IGF-1R (IGF-1R): 82 POC
Avg POC TAO1 (TAO1): 111 POC
Avg POC EphB3 (EphB3): 100 POC
Avg POC JNK2alpha2 (JNK2alpha2): 81.5 POC
Avg POC MINK (MINK): 139.5 POC
Avg POC HIPK1 (HIPK1): 100.5 POC
Avg POC IRAK4 (IRAK4): 122.5 POC
Avg POC CDK1/cyclinB (CDK1/cyclinB): 92 POC
Avg POC CDK7/cyclinH/MAT1 (CDK7/cyclinH/MAT1): 96.5 POC
Avg POC Pim-3 (Pim-3): 105.5 POC
Avg POC EphA8 (EphA8): 97.5 POC
Avg POC CDK5/p35 (CDK5/p35): 97 POC
Avg POC CDK2/cyclinE (CDK2/cyclinE): 93 POC
Avg POC GSK3beta (GSK3beta): 115 POC
Avg POC Flt3 (Flt3): 54 POC
Avg POC EphB4 (EphB4): 140.5 POC
Avg POC FAK (FAK): 96.5 POC
Avg POC ITK (ITK): 112 POC
Avg POC NLK (NLK): 107 POC
Avg POC Fer (Fer): 96.5 POC
Avg POC DAPK2 (DAPK2): 105 POC
Avg POC KIT (KIT): 102 POC
Avg POC PKCiota (PKCiota): 65.5 POC
Avg POC CHK1 (CHK1): 102.5 POC
Avg POC GSK3alpha (GSK3alpha): 105 POC
Avg POC IRR (IRR): 96 POC
Avg POC Txk (Txk): 104.5 POC
Avg POC EphA5 (EphA5): 114 POC
Avg POC CLK2 (CLK2): 97.5 POC
Avg POC ErbB4 (ErbB4): 108.5 POC
Avg POC MAPKAP-K2 (MAPKAP-K2): 106 POC
Avg POC MKNK2 (MKNK2): 98 POC
Avg POC SGK1 (SGK1): 96 POC
Avg POC ERK2 (ERK2): 104 POC
Avg POC AMPK(A1/B1/G1) (AMPK(A1/B1/G1)): 111.5 POC
Avg POC MSK1 (MSK1): 88.5 POC
Structure (SMILES): COCc1ccc(C2CCC2)c(CNC(=O)Nc2c(C)c(-c3cnc(C)nc3)nn2-c2ccccc2)c1 [Example 10, 1-(2-cyclobutyl-5-(methoxymethyl)benzyl)-3-(4-methyl-3-(2-methylpyrimidin-5-yl)-1-phenyl-1H-pyrazol-5-yl)urea]

Avg POC PDGFRalpha (PDGFRalpha): 126.5 POC
Avg POC AKT2 (AKT2): 199 POC
Avg POC PhKgamma2 (PhKgamma2): 116 POC
Avg POC CK1gamma3 (CK1gamma3): 119.5 POC
Avg POC PDK1 (PDK1): 126.5 POC
Avg POC IGF-1R (IGF-1R): 44 POC
Avg POC TAO1 (TAO1): 118.5 POC
Avg POC EphB3 (EphB3): 69 POC
Avg POC JNK2alpha2 (JNK2alpha2): 89.5 POC
Avg POC MINK (MINK): 100 POC
Avg POC HIPK1 (HIPK1): 115.5 POC
Avg POC IRAK4 (IRAK4): 109.5 POC
Avg POC CDK1/cyclinB (CDK1/cyclinB): 99 POC
Avg POC CDK7/cyclinH/MAT1 (CDK7/cyclinH/MAT1): 113.5 POC
Avg POC Pim-3 (Pim-3): 103 POC
Avg POC EphA8 (EphA8): 123 POC
Avg POC CDK5/p35 (CDK5/p35): 108.5 POC
Avg POC CDK2/cyclinE (CDK2/cyclinE): 115.5 POC
Avg POC GSK3beta (GSK3beta): 136.5 POC
Avg POC Flt3 (Flt3): 78.5 POC
Avg POC EphB4 (EphB4): 128 POC
Avg POC FAK (FAK): 99 POC
Avg POC ITK (ITK): 124 POC
Avg POC NLK (NLK): 121 POC
Avg POC Fer (Fer): 90.5 POC
Avg POC DAPK2 (DAPK2): 109.5 POC
Avg POC KIT (KIT): 94 POC
Avg POC PKCiota (PKCiota): 64 POC
Avg POC CHK1 (CHK1): 97 POC
Avg POC GSK3alpha (GSK3alpha): 161 POC
Avg POC IRR (IRR): 96.5 POC
Avg POC Txk (Txk): 156.5 POC
Avg POC EphA5 (EphA5): 123 POC
Avg POC CLK2 (CLK2): 131.5 POC
Avg POC ErbB4 (ErbB4): 130.5 POC
Avg POC MAPKAP-K2 (MAPKAP-K2): 146 POC
Avg POC MKNK2 (MKNK2): 101.5 POC
Avg POC SGK1 (SGK1): 279 POC
Avg POC ERK2 (ERK2): 117 POC
Avg POC AMPK(A1/B1/G1) (AMPK(A1/B1/G1)): 147.5 POC
Avg POC MSK1 (MSK1): 147 POC
Structure (SMILES): COCc1ccc(C(F)(F)F)c(CNC(=O)Nc2c(C)c(-c3cnn(C)c3)nn2-c2ccccc2)c1 [Example 33, 1-(1′,4-dimethyl-1-phenyl-1H,1′H-[3,4′-bipyrazol]-5-yl)-3-(5-(methoxymethyl)-2-(trifluoromethyl)benzyl)urea]
